# Measurements: patent US8119643B2, “Benzoimidazolyl-pyrazine compounds for inflammation and immune-related uses” (Synta Pharmaceuticals Corp., priority 2006, dated 2012)
# “Also recorded” adds a separate entry of the source.
# Legend:
# IL-2 production = experiment: Inhibition of IL-2 production in PHA-activated Jurkat cells (ELISA); format: cell-based; settings: Homo sapiens, PHA 2.5 μg/mL, 20 hours, IL-2 ELISA
# Experimental: Jurkat cells were placed in a 96 well plate (0.5 million cells per well in 1% FBS medium) then a test compound of this invention was added at different concentrations. After 10 minutes, the cells were activated with PHA (final concentration 2.5 μg/mL) and incubated for 20 hours at 37° C. under CO2. The final volume was 200 μL. Following incubation, the cells were centrifuged and the supernatants were collected and stored at −70° C. prior to assaying for IL-2 production. A commercial ELISA kit (IL-2 Eli-pair, Diaclone Research, Besancon, France) was used to detect production of IL-2, from which dose response curves were obtained. The IC50 value was calculated as the concentration at which 50% of maximum IL-2 production after stimulation was inhibited versus a non-stimulation control.
# [1] = tested on: Delayed-Type Hypersensitivity (DTH) reaction; experiment: Inhibition of delayed-type hypersensitivity (DTH) reaction in rats; format: in vivo, Lewis rats; settings: rat DTH; for Inhibition of gross change (%) Ear thickness (mm) / Inhibition of gross change (%) Ear weight (mg): 15 mg/kg orally at −2, +3, +9 hr, 24 hr after OVA challenge, relative to vehicle-treated group; for effect on ear weight after ovalbumin challenge / effect on ear thickness after ovalbumin challenge: compared to vehicle alone; for effect on ear weight after ovalbumin challenge: FIGS. 1 and 2; for effect on ear thickness after ovalbumin challenge: FIGS. 3 and 4
# Experimental: Lewis rats (n=7 each group) were sensitized with chicken ovalbumin (OVA; Sigma, A5503) and complete Freund's adjuvant (CFA; Sigma F5881) was injected into tail base by s.c. on day 0. On day 7, the animals were challenged with ovalbumin (OVA) on their right ears.
# Compounds 1 and 10 were prepared in vehicle solution (20% Vitamin E TPGS and 80% PEG-8).
# Female Lewis rats, 6-8 weeks of age, were obtained from Charles River Laboratories and permitted to acclimate for one week prior to experimental procedures. Rodents were allowed water and food ad libitum. Animals were housed in accordance with the Institutional Animal Care and Use Committee (IACUC), and experiments were performed in compliance with IACUC guidelines.
# Rat ears were measured with a dial thickness gauge (Mitutoyo gauge #8, Mitutoyo, USA). The swelling response was calculated by subtracting the ear thickness before challenge (baseline) from that of the same ear after challenge. To measure the ear weight, both left and right ears of euthanized rats were punched out with cork holer, the ear weight change was calculated by subtracting the saline-treated left ear weight from that of the OVA-challenged right ear weight.
# Delayed-type hypersensitivity is an in vivo T cell-dependent immune response manifested as an inflammatory reaction that reaches peak intensity 24 hr after OVA challenge. To determine the immunosuppressive effect of Compounds 1 and 10 in the rat DTH reaction, groups of rats (n=7) were administered with either vehicle, Compound 1 or Compound 10, orally three times, starting 2 hr before ear challenge, and 3 and 9 hr after ear challenge.
SMILES,IC50 (IL-2 production) [nM],Inhibition of gross change (%) Ear thickness (mm) [1] [%],Inhibition of gross change (%) Ear weight (mg) [1] [%],effect on ear weight after ovalbumin challenge [1],effect on ear thickness after ovalbumin challenge [1]
"COc1ccc2c(c1)nc(C(F)(F)F)n2-c1cnc(NC(=O)c2c(F)cccc2F)cn1 [Compound 1, 2,6-Difluoro-N-[5-(5-methoxy-2-trifluoromethyl-benzoimidazol-1-yl)-pyrazin-2-yl]-benzamide]",6,77,79,decreased ear weight; also recorded: significantly inhibited,decreased ear thickness; also recorded: significantly inhibited
"COc1ccc2c(c1)nc(C(F)(F)F)n2-c1cnc(NC(=O)c2ccc(F)c(F)c2F)cn1 [Compound 149, 2,3,4-Trifluoro-N-[5-(5-methoxy-2-trifluoromethyl-benzoimidazol-1-yl)-pyrazin-2-yl]-benzamide]",88,,,,
"COc1ccc2c(c1)nc(C(F)(F)F)n2-c1cnc(NC(=O)c2cc(F)ccc2Cl)cn1 [Compound 151, 2-Chloro-5-fluoro-N-[5-(5-methoxy-2-trifluoromethyl-benzoimidazol-1-yl)-pyrazin-2-yl]-benzamide]",27,,,,
"O=C(Nc1cnc(-n2c(C(F)(F)F)nc3cc(-c4ncco4)ccc32)cn1)c1c(F)cccc1F [Compound 153, 2,6-Difluoro-N-[5-(5-oxazol-2-yl-2-trifluoromethyl-benzoimidazol-1-yl)-pyrazin-2-yl]-benzamide]",15,,,,

# Continued, in another order:
IC50 (IL-2 production) [nM],SMILES,Inhibition of gross change (%) Ear thickness (mm) [1] [%],Inhibition of gross change (%) Ear weight (mg) [1] [%],effect on ear weight after ovalbumin challenge [1],effect on ear thickness after ovalbumin challenge [1]
12,"COc1ccc2c(c1)nc(C(F)(F)F)n2-c1cnc(NC(=O)c2ccccc2C)cn1 [Compound 10, N-[5-(5-Methoxy-2-trifluoromethyl-benzoimidazol-1-yl)-pyrazin-2-yl]-2-methyl-benzamide]",15,24,even stronger effect on reducing ear thickness and weight after challenge than Compound 1; also recorded: reduced ear thickness and weight after challenge more than dosing with cyclosporine A,even stronger effect on reducing ear thickness and weight after challenge than Compound 1; also recorded: reduced ear thickness and weight after challenge more than dosing with cyclosporine A
18,"COc1ccc2c(c1)nc(C(F)(F)F)n2-c1cnc(NC(=O)c2cc([N+](=O)[O-])ccc2C)cn1 [Compound 146, N-[5-(5-Methoxy-2-trifluoromethyl-benzoimidazol-1-yl)-pyrazin-2-yl]-2-methyl-5-nitro-benzamide]",,,,
> 1000,"COc1ccc2c(c1)nc(C(F)(F)F)n2-c1cnc(NC(=O)c2ccc([N+](=O)[O-])c(OC)c2)cn1 [Compound 147, 3-Methoxy-N-[5-(5-methoxy-2-trifluoromethyl-benzoimidazol-1-yl)-pyrazin-2-yl]-4-nitro-benzamide]",,,,
98,"COc1ccc2c(c1)nc(C(F)(F)F)n2-c1cnc(NC(=O)c2cc(Cl)ccc2F)cn1 [Compound 148, 5-Chloro-2-fluoro-N-[5-(5-methoxy-2-trifluoromethyl-benzoimidazol-1-yl)-pyrazin-2-yl]-benzamide]",,,,
126,"COc1ccc2c(c1)nc(C(F)(F)F)n2-c1cnc(NC(=O)c2ccc([N+](=O)[O-])cc2F)cn1 [Compound 150, 2-Fluoro-N-[5-(5-methoxy-2-trifluoromethyl-benzoimidazol-1-yl)-pyrazin-2-yl]-4-nitro-benzamide]",,,,
> 1000,"COc1ccc2c(c1)nc(C(F)(F)F)n2-c1cnc(NC(=O)c2cc(Cl)ccc2OC)cn1 [Compound 152, 5-Chloro-2-methoxy-N-[5-(5-methoxy-2-trifluoromethyl-benzoimidazol-1-yl)-pyrazin-2-yl]-benzamide]",,,,
